Read-outs that look alike come from different tables or passages of the source.
Columns and labels:
neutrophils [1] = tested on: neutrophils
Protocol: (§1) Neutrophils were isolated from peripheral blood. 3.5 ml of heparinised blood was spread over M-PRM medium (Flow Laboratories) and centrifuged for 40 minutes at 400g at 20° C. […] The cells were adjusted to a concentration of 2×10^6 ml.
Acid phosphatase: 50 μl of substrate mixture, consisting of 0.24% paranitrophenyl phosphate (Boehring) and 0.84% NaCl in a sodium citrate buffer (pH 5.5) were added to cells and incubated for 30 minutes at 30° C. before the reaction was by adding 100 μl of 0.2M NaOH. The optical density at 405 mu was measured with a Multiscan Titertek Plus (Flow Laboratories).
(§2) For chemiluminescence, superoxide anion production, myeloperoxidase and acid phosphatase both the spontaneous and induced reactions were measured. Induction was performed by exposing the cells to opsonized zymosan (30 μl, 20 mg/ml) for 30 minutes at 37° C. before the assay.
(§3) In the treated group GMDP was given per os on days -2 and -1 before the operation, and subcutaneously on days +1, +2 and +3 after the operation at a dose of 1-2 mg/day. The total dose of GMDP was […]. On day +5 after the operation neutrophil function was again assessed in all patients by the same parameters as specified above.

Pyrogenicity = details: in vivo
Protocol: The expression "non pyrogenic or of low pyrogenicity" refers to a compound which induces an increase in temperature of an adult human of less than half a degree following the administration of 1 to 2 mg of the compound.
First, muramyl peptide compounds useful in the invention may be non-pyrogenic. Pyrogenicity may be simply measured by methods well known in the art.

neutrophils [2] = tested on: neutrophils; remark: listed apart in the source
Protocol: as §1
(§4) Superoxide anion production was determined by the NBT test (Merck).
as §2, §3

[3] = tested on: patients suffering from acute sepsis; details: GMDP parenterally 1-2 mg/day for five days
Protocol: The patients entering this trial were already suffering from serious systemic bacterial sepsis arising as a result of destructive cholecystitis, abscesses of the abdominal cavity, peritonitis, pancreonecrosis and post-operative pneumonia.
(§5) On day before treatment with GMDP (day -1) the neutrophil function of all patients was measured by the tests described above in Example 1. In the GMDP-treated group, GMDP was administered parenterally at a dose of 1-2 mg/day for five consecutive days. The total dose of GMDP was […].

neutrophils [4] = tested on: neutrophils; remark: listed apart in the source
Protocol: as §1
Adhesion: 100 μl of neutrophil suspension were placed in the wells of a flat-bottomed culture dish, and incubated at 37° C. for 60 minutes. After washing off the non-adhesive cells, the adhered neutrophils were fixed with ethanol and stained with Romanovsky-Giemsa dye. After washing out the free dye, the cell-associated dye was dissolved in isopropanol, and the optical density (OD650) of the solution was determined using an "ELISA II" microprocessor (Boehringer). The number of adherent cells was calculated by reference to a standard curve.
as §5
(§6) One day after the cessation of GMDP treatment (day +6), neutrophil function was again measured in all patients.

[5] = tested on: patients undergoing surgery for colon cancer
Protocol: All the patients entering this trial were about to undergo major abdominal surgery for the resection of carcinoma of the colon.
as §3
The patients were monitored for post-operative sepsis for four weeks following the operation. The septic complications which were scored included disseminated sepsis, pneumonia, peritonitis and abdominal abscesses, all of which are known to lead to septic shock.

neutrophils [6] = tested on: neutrophils; remark: listed apart in the source
Protocol: as §1, §4, §2, §5, §6

TNFα = assay: Example 8: TNF induction by muramyl peptides; assay type: in vivo, BALB/c mice; details: C. parvum-primed mice, 100 μg (equimolar) IP, LPS 25 μg 18 hours later; FIG. 6
Protocol: Here, the muramyl peptides tested were prototype MDP, GMDP, GMDP-A, GMDP-OBu, GMDP-Lys(St), GMDPA-Lys(St), GMDP-Benz and Thr-MDP.
BALB/mice (6 mice/groups) were injected intraperitoneally with 1.4 mg of dead C. parvum (0.2 ml of a 7 mg/ml suspension). Mice were subsequently (2 weeks later) treated with saline, MDP (100 μg) or analogue (100 μg) in 0.5 ml saline IP. The dose of each `MDP` was adjusted so that animals received equimolar amounts. […] (25 μg) was injected 18 hours after the injection of MDP/analogue and the mice were subsequently sacrificed and bled out. TNF was determined by standard capture ELISA assay.

IL-1 = assay: Example 6: IL-1 production by peritoneal macrophages in response to LPS; assay type: in vivo, BALB/c mice; details: 2 injections 12 hours apart; macrophages stimulated with LPS 25 μg/ml 24 hours; thymocyte co-stimulation bioassay; FIG. 4
Protocol: Mice (BALB/c, female) 13-14 g, 5 animals in each group, received 2 injections of MDPs, 12 hours apart. The MDPs tested were MDP, muroctasin, MDP-Thr, MDP-OBu, GMDP-LL, GMDP-Lys(St) and GMDP-A. After the last injection, peritoneal cells were collected and the induction of IL-1 secretion by peritoneal macrophages was tested.
Macrophages were collected from the peritoneal cavity of mice by lavage with Hank's balanced salt solution. After washing the cells, they were then placed in wells of flat-bottomed 96-well plates and incubated at 37° C. for 1 hour in RPMI containing 5% FCS. The plates were then washed with warm RPMI to remove non-adhering cells. LPS (25 μg/ml) was then added in fresh culture medium and the plates were further cultured for 24 hours.
Production of IL-1 by peritoneal macrophages was assayed by thymocyte co-stimulation bioassay. Thymocytes from (CBA*C57BL.6)F1 mice (106), PHA (1 μg.ml), and the tested supernatant (50 μl) were placed into the wells of flat-bottomed 96-well plates. Thymocyte proliferation rate was measured 72 hours later by the incorporation of 3H TdR (1 μCi.well) during 6 hours prior to culture termination.

peritoneal macrophages = details: 100 μg i.p. per mouse, LPS 300 μg one day later, black ink uptake, OD 610 nm; FIG. 2
Protocol: Mice were divided into 9 groups and to each group was administered one of the following: saline, MDP, MDP-OBu, MDP-Thr, GMDP, MDP-Lys(St), GMDP-OH and GMDP-LL.
The compound under test was injected into the peritoneal cavity of mice, each mouse receiving 100 μg or an equimolar equivalent dose. Control mice received 200 μl of saline. One day after injection of the muramyl peptide, a lethal does of LPS (300 μg per mouse) in 200 μl of physiological saline was injected intraperitoneally and after 20 minutes, 1 ml of black ink was also administered intraperitoneally. 10 minutes later, peritoneal macrophages were obtained and washed twice. The number of cells was counted and then the macrophages were lysed and the optical density of the supernatant was determined at 610 nm.

[7] = opsonized zymosan, Day -3 (before treatment)
[8] = opsonized zymosan, Day -3 to Day +5

CC(=O)NC1C(OC2C(CO)OC(O)C(NC(C)=O)C2OC(C)C(=O)NC(C)C(=O)NC(CCC(=O)O)C(N)=O)OC(CO)C(O)C1O [GMDP, N-acetyl-D-glucosaminyl-(β1-4)-N-acetylmuramyl-L-alanyl-D-isoglutamine]
Acid phosphatase, spontaneous (neutrophils [1]; Day +5): 114.9 ± 2.4 O.D. 405μ | Acid phosphatase, spontaneous (neutrophils [1]; Day -3 (before treatment)): 133.8 ± 75 O.D. 405μ | Acid phosphatase, spontaneous % Change (neutrophils [1]; Day -3 to Day +5): -14.1% | Acid phosphatase, induced (neutrophils [1]; opsonized zymosan, Day +5): 120.8 ± 3.2 O.D. 405μ | Acid phosphatase, induced (neutrophils [1]; [7]): 172.3 ± 18.8 O.D. 405μ | Acid phosphatase, induced % Change (neutrophils [1]; [8]): -29.94% | pyrogenicity (Pyrogenicity): sufficiently low | Superoxide, spontaneous (neutrophils [2]; Day +5): 97.6 ± 12.8 | Superoxide, spontaneous (neutrophils [2]; Day -3 (before treatment)): 78.9 ± 15.7 | Superoxide, spontaneous % Change (neutrophils [2]; Day -3 to Day +5): +23.7% | Superoxide, induced (neutrophils [2]; opsonized zymosan, Day +5): 134.9 ± 11.3 | Superoxide, induced (neutrophils [2]; [7]): 133.7 ± 16.1 | Superoxide, induced % Change (neutrophils [2]; [8]): +0.9% | No of patients with progression of septic complications ([3]; 14 treated patients): 4 | Mortality (%) ([3]; control 27%): 14.3% | Incidence of progression of septic complications (%) ([3]; control 61%): 28.6% | Adhesion (neutrophils [4]; Day +6): 52.3 ± 2.3 O.D. 650μ | Adhesion (neutrophils [4]; Day -1 (before treatment)): 34.6 ± 6.2 O.D. 650μ | Adhesion % Change (neutrophils [4]; Day -1 to Day +6): +51.2% | No of Patients with Septic Complications ([5]; 16 treated patients, GMDP 1-2 mg/day per os days -2,-1, s.c. days +1 to +3, monitored 4 weeks): 3 | Mortality (%) ([5]; GMDP before and after operation, control 15%): 6.25% | Incidence of Septic Complications (%) ([5]; GMDP before and after operation, control 50%): 18.75% | Superoxide, spontaneous (neutrophils [6]; Day +6): 84.3 ± 8.7 O.D. 540μ | Superoxide, spontaneous (neutrophils [6]; Day -1 (before treatment)): 55.5 ± 6.4 O.D. 540μ | Superoxide, spontaneous % Change (neutrophils [6]; Day -1 to Day +6): +51.9% | Superoxide, induced (neutrophils [6]; opsonized zymosan, Day -1 (before treatment)): 92.1 ± 3.21 O.D. 540μ | Superoxide, induced % Change (neutrophils [6]; opsonized zymosan, Day -1 to Day +6): +53.2% | effect on LPS-induced TNFα production (TNFα): suppress TNFα production | suppression of IL-1 production (IL-1): suppress the IL-1 response to LPS | phagocytic activity of macrophages (peritoneal macrophages): potent in increasing macrophage activity

Reference: patent publication US5506204A, “Muramyl compounds for treatment of septic shock” (Peptech (UK) Limited, priority 1991, dated 1996)
